US4550186A, “Binuclear copper (II) carboxylates formed from amine-carboxyboranes” (Duke University, priority 1983, dated 1985)

How the values were obtained:
[1] = test system: ribonucleic acid synthesis of Ehrlich ascites cells; experiment: In vitro whole cell incorporation: ribonucleic acid synthesis; assay type: cell-based, mouse; conditions: preliminary, 60 min, read-out: ID50, ribonucleic acid synthesis
Experimental: (§1) CF1 male mice (~30 g) were implanted with 2×10^6 Ehrlich ascites tumor cells, intraperitoneally on Day 0. Compound I was suspended by homogenation in 0.05% polysorbate.80-water and administered intraperitoneally at 10 and 20 mg/kg for 9 days to determine its effectiveness for inhibition of tumor growth. Mice were sacrificed on Day 10, and the ascites fluid was collected from the peritoneal cavity. The volume and ascrit (packed cell volume) were determined for each animal and the percent inhibition of tumor growth was calculated. For the metabolic studies, mice were treated on Days 8 and 9 with 10 mg/kg of Compound I, intraperitoneally. The animal was sacrificed on Day 10 and the ascites fluid harvested. The in vitro metabolic studies were performed at 0.25, 0.50 and 1 mmol final concentration of Compound I.
In vitro incorporation of ^3 H-thymidine, ^3 H-uridine, or ^3 H-leucine was determined using 10^6 Ehrlich ascites cells, 1 μCi labeled precursor, minimum essential medium and varying final concentrations of drug from 0.25-1.0 mM. The tubes were incubated at 37° C. for 60 min and inactivated by trichloroacetic acid. The acid insoluble labeled deoxyribonucleic acid was collected on GF/F glass filter discs and ribonucleic acid and protein were precipitated on nitrocellulose filters by vacuum suction. Results are expressed as dpm of incorporated precursor per hour per 10^6 cells.

ribonucleotide reductase = target: T1, ribonucleotide reductase (Mus musculus, UniProt P07742+P11157); experiment: In vitro ribonucleotide reductase activity; assay type: biochemical; conditions: 0.25 to 1.0 mM
T1 construct: endogenous in cells; host or cells: Ehrlich ascites tumor cells
T1 sequence (P07742 1-792): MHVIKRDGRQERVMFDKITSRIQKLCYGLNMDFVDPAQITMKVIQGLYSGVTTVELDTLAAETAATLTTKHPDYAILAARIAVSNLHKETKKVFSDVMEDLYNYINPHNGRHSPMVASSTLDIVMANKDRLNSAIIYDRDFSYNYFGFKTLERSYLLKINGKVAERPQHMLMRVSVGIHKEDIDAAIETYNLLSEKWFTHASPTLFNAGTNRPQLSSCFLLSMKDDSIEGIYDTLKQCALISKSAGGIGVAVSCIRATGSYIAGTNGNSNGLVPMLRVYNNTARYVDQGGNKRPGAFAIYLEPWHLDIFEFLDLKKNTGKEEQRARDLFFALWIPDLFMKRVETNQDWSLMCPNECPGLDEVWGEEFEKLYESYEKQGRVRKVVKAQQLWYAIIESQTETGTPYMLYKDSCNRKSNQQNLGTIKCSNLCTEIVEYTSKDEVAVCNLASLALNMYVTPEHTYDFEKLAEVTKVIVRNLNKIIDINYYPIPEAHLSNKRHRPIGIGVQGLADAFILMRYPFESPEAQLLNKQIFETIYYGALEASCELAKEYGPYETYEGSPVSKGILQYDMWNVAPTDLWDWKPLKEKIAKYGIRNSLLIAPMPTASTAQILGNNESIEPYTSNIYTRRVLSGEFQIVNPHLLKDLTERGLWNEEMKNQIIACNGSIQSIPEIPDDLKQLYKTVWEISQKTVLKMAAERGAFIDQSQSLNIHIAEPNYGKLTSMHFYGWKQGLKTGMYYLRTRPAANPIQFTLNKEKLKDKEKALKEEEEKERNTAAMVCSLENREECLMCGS
T1 sequence (P11157 1-390): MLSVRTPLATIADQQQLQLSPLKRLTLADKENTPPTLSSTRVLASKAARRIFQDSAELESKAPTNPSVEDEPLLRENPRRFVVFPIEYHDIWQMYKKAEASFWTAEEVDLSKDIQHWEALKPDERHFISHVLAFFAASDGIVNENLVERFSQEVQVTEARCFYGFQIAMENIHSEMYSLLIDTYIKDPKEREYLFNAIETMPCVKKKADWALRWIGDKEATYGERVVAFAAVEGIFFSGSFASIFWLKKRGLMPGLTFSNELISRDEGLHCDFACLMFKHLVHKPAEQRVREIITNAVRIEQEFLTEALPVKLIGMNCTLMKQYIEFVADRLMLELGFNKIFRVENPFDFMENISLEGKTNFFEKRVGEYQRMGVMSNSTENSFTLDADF
Experimental: as §1, with “The animal was sacrificed on Day 10 and the ascites fluid harvested. The in vitro metabolic studies were performed at 0.25, 0.50 and 1 mmol final concentration of Compound I.” left out
Carbamyl phosphate synthetase activity was determined using the reaction medium of Kalman et al [Am. […] Citrulline formed from ornithine was measured at 490 nm by the method of Archibald [J. Biol. Chem., 156, 121 (1944)]. […] The ^14 CO2 generated in 15 min was trapped in 1M KOH and counted. Thymidylate synthetase activity was determined using a post-mitochondrial supernatant (9000 g×10 min) and 5 μCi of 5-^3 H-deoxyuridine monophosphate (14 Ci/mmol) according to the method of Kampf et al [ J. Med. Chem., 19, 903 (1976)]. ^14 C-Formate incorporation into purines was determined by the method of Spassova et al [Biochem. Pharmacol., 25, 923 (1976)] using 0.5 μCi of ^14 C-formic acid (52.0 mCi/mmol). […] The Rf value for xanthine monophosphate was scraped and counted. […]

For “{Cu[(CH3)3 N.BH2 CO2 ]2.(CH3)3 N.BH2 COOH} [Compound I]”, the IC50 [1] was 1820 µM and the ribonucleotide reductase inhibition (ribonucleotide reductase) was “not inhibited”.
